Patent US20050070510A1, “Substituted tetracycline compounds as synergistic antifungal agents” (Paratek Pharmaceuticals, Inc., priority 2001, published 2005)

What follows are compounds tested on COS-1 cells (assay: In vitro mammalian cytotoxicity assay (Resazurin)).

Structure (SMILES) | In Vitro Cytotoxicity
CN(C)[C@@H]1C(O)=C(C(N)=O)C(=O)[C@@]2(C#N)C(O)=C3C(=O)c4c(O)cccc4/C(=C\c4ccc(F)cc4)[C@@]3(N)[C@H](O)[C@@]12N [DS] | ** (toxicities less than 25 μg/mL are represented by **)
CCCCCc1ccc(O)c2c1C[C@@]1(N)C[C@@]3(N)[C@H](N(C)C)C(O)=C(C(N)=O)C(=O)[C@@]3(C#N)C(O)=C1C2=O [JU] | ** (toxicities less than 25 μg/mL are represented by **)
CN(C)[C@@H]1C(O)=C(C(N)=O)C(=O)[C@@]2(C#N)C(O)=C3C(=O)c4c(O)ccc(-c5ccc(NC(=O)NCCCCl)cc5)c4C[C@@]3(N)C[C@@]12N [US] | ** (toxicities less than 25 μg/mL are represented by **)
CN(C)[C@@H]1C(O)=C(C(N)=O)C(=O)[C@@]2(C#N)C(O)=C3C(=O)c4c(O)ccc(-c5cc6ccccc6o5)c4C[C@@]3(N)C[C@@]12N [FM] | * (toxicities greater than >25 μg/ml are represented by *)
Cc1cc(CNCc2cc(N(C)C)c3c(c2O)C(=O)C2=C(O)[C@]4(C#N)C(=O)C(C(N)=O)=C(O)[C@@H](N(C)C)[C@]4(N)C[C@]2(N)C3)[nH]c1C [SP] | * (toxicities greater than >25 μg/ml are represented by *)
CN(C)c1cc(CNC(=O)c2ccco2)c(O)c2c1C[C@@]1(N)C[C@@]3(N)[C@H](N(C)C)C(O)=C(C(N)=O)C(=O)[C@@]3(C#N)C(O)=C1C2=O [SW] | * (toxicities greater than >25 μg/ml are represented by *)
CN(C)c1cc(C#Cc2cccc(O)c2)c(O)c2c1C[C@@]1(N)C[C@@]3(N)[C@H](N(C)C)C(O)=C(C(N)=O)C(=O)[C@@]3(C#N)C(O)=C1C2=O [FG] | ** (toxicities less than 25 μg/mL are represented by **)
CC(=O)c1ccc(O)c2c1[C@H](N)[C@]1(N)C(=C(O)[C@]3(C#N)C(=O)C(C(N)=O)=C(O)[C@@H](N(C)C)[C@]3(N)[C@H]1O)C2=O [CR] | ** (toxicities less than 25 μg/mL are represented by **)
COc1ccc(-c2ccc(O)c3c2C[C@@]2(N)C[C@@]4(N)C(N(C)C)C(O)=C(C(N)=O)C(=O)[C@@]4(C#N)C(O)=C2C3=O)cc1C=O (stereo partly drawn) [QV] | ** (toxicities less than 25 μg/mL are represented by **)
CN(C)[C@@H]1C(O)=C(C(N)=O)C(=O)[C@@]2(C#N)C(O)=C3C(=O)c4c(O)ccc(/C=C/c5ccc(C(F)(F)F)cc5)c4C[C@@]3(N)C[C@@]12N [HK] | ** (toxicities less than 25 μg/mL are represented by **)
CN(C)[C@@H]1C(O)=C(C(N)=O)C(=O)[C@@]2(C#N)C(O)=C3C(=O)c4c(O)ccc(-c5ccc(C(F)(F)F)cc5)c4C[C@@]3(N)C[C@@]12N [FQ] | ** (toxicities less than 25 μg/mL are represented by **)
CN(C)[C@@H]1C(O)=C(C(N)=O)C(=O)[C@@]2(C#N)C(O)=C3C(=O)c4c(O)ccc(/C=C/c5ccc(Cl)cc5)c4C[C@@]3(N)C[C@@]12N [GV] | * (toxicities greater than >25 μg/ml are represented by *)
CCCNCc1ccc(OC)c(-c2ccc(O)c3c2C[C@@]2(N)C[C@@]4(N)[C@H](N(C)C)C(O)=C(C(N)=O)C(=O)[C@@]4(C#N)C(O)=C2C3=O)c1 [LV] | * (toxicities greater than >25 μg/ml are represented by *)
COc1cc(C/C=C\c2ccc(O)c3c2C[C@@]2(N)C[C@@]4(N)[C@H](N(C)C)C(O)=C(C(N)=O)C(=O)[C@@]4(C#N)C(O)=C2C3=O)ccc1O [HW] | ** (toxicities less than 25 μg/mL are represented by **)
CN(C)c1cc(CNC(=O)Nc2ccc(F)cc2)c(O)c2c1C[C@@]1(N)C[C@@]3(N)[C@H](N(C)C)C(O)=C(C(N)=O)C(=O)[C@@]3(C#N)C(O)=C1C2=O [MY] | ** (toxicities less than 25 μg/mL are represented by **)
Cc1ccc(/C=C2\c3cccc(O)c3C(=O)C3=C(O)[C@]4(C#N)C(=O)C(C(N)=O)=C(O)[C@@H](N(C)C)[C@]4(O)[C@@H](O)[C@@]32N)cc1 [CY] | ** (toxicities less than 25 μg/mL are represented by **)
CCC(CC)CCc1ccc(O)c2c1C[C@@]1(N)C[C@@]3(N)C(N(C)C)C(O)=C(C(N)=O)C(=O)[C@@]3(C#N)C(O)=C1C2=O (stereo partly drawn) [QX] | ** (toxicities less than 25 μg/mL are represented by **)
CN(C)c1cc(NC(=O)CNC(C)(C)C)c(O)c2c1C[C@@]1(N)C[C@@]3(N)[C@H](N(C)C)C(O)=C(C(N)=O)C(=O)[C@@]3(C#N)C(O)=C1C2=O [LC] | * (toxicities greater than >25 μg/ml are represented by *)
CCCC#Cc1cc(N(C)C)c2c(c1O)C(=O)C1=C(O)[C@]3(C#N)C(=O)C(C(N)=O)=C(O)[C@@H](N(C)C)[C@]3(N)C[C@]1(N)C2 [KX] | ** (toxicities less than 25 μg/mL are represented by **)
CN(C)[C@@H]1C(O)=C(C(N)=O)C(=O)[C@@]2(C#N)C(O)=C3C(=O)c4c(O)ccc(-c5ccco5)c4C[C@@]3(N)C[C@@]12N [GO] | ** (toxicities less than 25 μg/mL are represented by **)
CN(C)[C@@H]1C(O)=C(C(N)=O)C(=O)[C@@]2(C#N)C(O)=C3C(=O)c4c(ccc(CNC(=O)c5ccccc5)c4O)C[C@@]3(N)C[C@@]12N [RW] | * (toxicities greater than >25 μg/ml are represented by *)

Structure (SMILES) | In Vitro Cytotoxicity
CCOP(=O)(OCC)C(Nc1ccccc1)c1ccc(-c2cc(N(C)C)c3c(c2O)C(=O)C2=C(O)[C@]4(C#N)C(=O)C(C(N)=O)=C(O)[C@@H](N(C)C)[C@]4(N)C[C@]2(N)C3)cc1 (stereo partly drawn) [KP] | * (toxicities greater than >25 μg/ml are represented by *)
CN(C)c1ccc(-c2cc(CN)c(O)c3c2C[C@@]2(N)C[C@@]4(N)[C@H](N(C)C)C(O)=C(C(N)=O)C(=O)[C@@]4(C#N)C(O)=C2C3=O)cc1 [QN] | * (toxicities greater than >25 μg/ml are represented by *)
CN(C)[C@@H]1C(O)=C(C(N)=O)C(=O)[C@@]2(C#N)C(O)=C3C(=O)c4c(ccc(NC5CCCC5)c4O)[C@H](N)[C@@]3(N)[C@H]([S+](N)[O-])[C@@]12N (stereo partly drawn) [CA] | ** (toxicities less than 25 μg/mL are represented by **)
CC#Cc1cc(C#CC)c2c(c1O)C(=O)C1=C(O)[C@]3(C#N)C(=O)C(C(N)=O)=C(O)[C@@H](N(C)C)[C@]3(N)C[C@]1(N)C2 [NI] | ** (toxicities less than 25 μg/mL are represented by **)
CN(C)c1ccc(-c2ccc3c(c2O)C(=O)C2=C(O)[C@]4(C#N)C(=O)C(C(N)=O)=C(O)[C@@H](N(C)C)[C@]4(N)[C@@H](O)[C@]2(N)[C@H]3O)cc1 [OY] | ** (toxicities less than 25 μg/mL are represented by **)
CN(C)[C@@H]1C(O)=C(C(N)=O)C(=O)[C@@]2(C#N)C(O)=C3C(=O)c4c(ccc(-c5ccco5)c4O)[C@H](O)[C@@]3(N)[C@H](O)[C@@]12N [DY] | ** (toxicities less than 25 μg/mL are represented by **)
CN(C)c1cc(NCc2cc(F)cc(F)c2)c(O)c2c1C[C@@]1(N)C[C@@]3(N)[C@H](N(C)C)C(O)=C(C(N)=O)C(=O)[C@@]3(C#N)C(O)=C1C2=O [TS] | ** (toxicities less than 25 μg/mL are represented by **)
COc1ccc(Cl)cc1-c1ccc(O)c2c1C[C@@]1(N)C[C@@]3(N)[C@H](N(C)C)C(O)=C(C(N)=O)C(=O)[C@@]3(C#N)C(O)=C1C2=O [GL] | ** (toxicities less than 25 μg/mL are represented by **)
CN(C)c1cc(NCc2ccccc2)c(O)c2c1C[C@@]1(N)C[C@@]3(N)[C@H](N(C)C)C(O)=C(C(N)=O)C(=O)[C@@]3(C#N)C(O)=C1C2=O [LO] | ** (toxicities less than 25 μg/mL are represented by **)
CCOC(=O)C(C)(/N=N/c1ccc2c(c1O)C(=O)C1=C(O)[C@]3(C#N)C(=O)C(C(N)=O)=C(O)[C@@H](N(C)C)[C@]3(N)[C@@H](O)[C@]1(N)[C@H]2N)C(=O)OCC [DK] | ** (toxicities less than 25 μg/mL are represented by **)
CCCCc1ccc(-c2cc(N(C)C)c3c(c2O)C(=O)C2=C(O)[C@]4(C#N)C(=O)C(C(N)=O)=C(O)[C@@H](N(C)C)[C@]4(N)C[C@]2(N)C3)cc1 [LY] | ** (toxicities less than 25 μg/mL are represented by **)
CN(C)[C@@H]1C(O)=C(C(N)=O)C(=O)[C@@]2(C#N)C(O)=C3C(=O)c4c(O)ccc(/C=C(\Cl)C5=CCCCC5)c4C[C@@]3(N)C[C@@]12N [GG] | ** (toxicities less than 25 μg/mL are represented by **)
CN(C)[C@@H]1C(O)=C(C(N)=O)C(=O)[C@@]2(C#N)C(O)=C3C(=O)c4c(O)ccc(-c5ccncc5)c4C[C@@]3(N)C[C@@]12N [UN] | ** (toxicities less than 25 μg/mL are represented by **)
Cc1cccnc1-c1ccc(O)c2c1C[C@@]1(N)C[C@@]3(N)[C@H](N(C)C)C(O)=C(C(N)=O)C(=O)[C@@]3(C#N)C(O)=C1C2=O [UW] | * (toxicities greater than >25 μg/ml are represented by *)
CC(=O)OCCCC(C)(C)c1ccc2c(c1O)C(=O)C1=C(O)[C@]3(C#N)C(=O)C(C(N)=O)=C(O)[C@@H](N(C)C)[C@]3(N)[C@@H](O)[C@]1(N)[C@H]2N [BA] | ** (toxicities less than 25 μg/mL are represented by **)
CN(C)[C@@H]1C(O)=C(C(N)=O)C(=O)[C@@]2(C#N)C(O)=C3C(=O)c4c(O)ccc(C#CC5(C#N)CCCCC5)c4C[C@@]3(N)C[C@@]12N [GA] | ** (toxicities less than 25 μg/mL are represented by **)
CCCC#Cc1ccc(O)c2c1C[C@@]1(N)C[C@@]3(N)[C@H](N(C)C)C(O)=C(C(N)=O)C(=O)[C@@]3(C#N)C(O)=C1C2=O [KA] | ** (toxicities less than 25 μg/mL are represented by **)
CCOC(=O)CNCc1ccc(-c2ccc(O)c3c2C[C@@]2(N)C[C@@]4(N)[C@H](N(C)C)C(O)=C(C(N)=O)C(=O)[C@@]4(C#N)C(O)=C2C3=O)c2ccccc12 [OQ] | ** (toxicities less than 25 μg/mL are represented by **)
CN(C)c1cc(CNCCc2ccccc2)c(O)c2c1C[C@@]1(N)C[C@@]3(N)[C@H](N(C)C)C(O)=C(C(N)=O)C(=O)[C@@]3(C#N)C(O)=C1C2=O [LX] | * (toxicities greater than >25 μg/ml are represented by *)
CN(C)c1cc(C#Cc2ccc(F)cc2)c(O)c2c1C[C@@]1(N)C[C@@]3(N)[C@H](N(C)C)C(O)=C(C(N)=O)C(=O)[C@@]3(C#N)C(O)=C1C2=O [FF] | ** (toxicities less than 25 μg/mL are represented by **)
COc1ccc(CNCc2cccc(Cl)c2)cc1-c1ccc(O)c2c1C[C@@]1(N)C[C@@]3(N)[C@H](N(C)C)C(O)=C(C(N)=O)C(=O)[C@@]3(C#N)C(O)=C1C2=O [NJ] | ** (toxicities less than 25 μg/mL are represented by **)
